In patent US12077503B2, “Substituted cyclic amides and their use as herbicides” (FMC CORPORATION, priority 2015, dated 2024):

Experiments:
Format in all cases: in vivo
[1] = system: wheat (Triticum aestivum); assay: Test A postemergence; details: Triticum aestivum, post-emergence, 240 h, Postemergence, read-out: Wheat plant response rating (0 to 100 scale); for plant injury at 125 g/ha: 125 g ai/ha, visual rating about 10 d after treatment; for plant injury at 31 g/ha: 31 g ai/ha, 0 is no effect, 100 is complete control
In short: (§1)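 Treatment is preemergence as a directed soil spray after planting, or postemergence at the one- to two-leaf stage, with test chemical in a non-phytotoxic solvent mixture plus surfactant. Plants stay in the greenhouse about 10 d before visual injury scoring on a 0 to 100 scale versus untreated controls.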

[2] = system: ryegrass, Italian (Italian ryegrass, Lolium multiflorum); assay: Test A postemergence; details: Lolium multiflorum, post-emergence, 240 h, Postemergence, read-out: Ryegrass, Italian plant response rating (0 to 100 scale); for pest or weed control at 125 g/ha: 125 g ai/ha, visual rating about 10 d after treatment; for pest or weed control at 31 g/ha: 31 g ai/ha, 0 is no effect, 100 is complete control
In short: as §1

[3] = system: ragweed (common ragweed, Ambrosia elatior); assay: Test A postemergence; details: Ambrosia artemisiifolia, post-emergence, 240 h, Postemergence, read-out: Ragweed plant response rating (0 to 100 scale); for pest or weed control at 125 g/ha: 125 g ai/ha, visual rating about 10 d after treatment; for pest or weed control at 31 g/ha: 31 g ai/ha, 0 is no effect, 100 is complete control
In short: as §1

[4] = system: blackgrass (Alopecurus myosuroides); assay: Test A postemergence; details: Alopecurus myosuroides, post-emergence, 240 h, Postemergence, read-out: Blackgrass plant response rating (0 to 100 scale); for pest or weed control at 125 g/ha: 125 g ai/ha, visual rating about 10 d after treatment; for pest or weed control at 31 g/ha: 31 g ai/ha, 0 is no effect, 100 is complete control
In short: as §1

[5] = system: giant foxtail (Setaria faberii); assay: Test A postemergence; details: Setaria faberi, post-emergence, 240 h, Postemergence, read-out: Foxtail, Giant plant response rating (0 to 100 scale); for pest or weed control at 125 g/ha: 125 g ai/ha, visual rating about 10 d after treatment; for pest or weed control at 31 g/ha: 31 g ai/ha, 0 is no effect, 100 is complete control
In short: as §1

Kochia (Kochia scoparia) [6] = assay: Test A postemergence; details: Bassia scoparia, post-emergence, 240 h, Postemergence, read-out: Kochia plant response rating (0 to 100 scale); for pest or weed control at 125 g/ha: 125 g ai/ha, visual rating about 10 d after treatment; for pest or weed control at 31 g/ha: 31 g ai/ha, 0 is no effect, 100 is complete control
In short: as §1

[7] = system: barnyardgrass (Echinochloa crus-galli); assay: Test A postemergence; details: Echinochloa crus-galli, post-emergence, 240 h, Postemergence; for pest or weed control at 125 g/ha: 125 g ai/ha, visual rating about 10 d after treatment, read-out: Barnyardgrass plant response rating (0 to 100 scale, 0 no effect, 100 complete control); for pest or weed control at 31 g/ha: 31 g ai/ha, 0 is no effect, 100 is complete control, read-out: Barnyardgrass plant response rating (0 to 100 scale)
In short: as §1

corn (Zea mays) = assay: Test A postemergence; details: Zea mays, post-emergence, 240 h, Postemergence, read-out: Corn plant response rating (0 to 100 scale); for plant injury at 125 g/ha: 125 g ai/ha, visual rating about 10 d after treatment; for plant injury at 31 g/ha: 31 g ai/ha, 0 is no effect, 100 is complete control
In short: as §1

[8] = system: pigweed (Amaranthus retroflexus); assay: Test A postemergence; details: Amaranthus retroflexus, post-emergence, 240 h, Postemergence, read-out: Pigweed plant response rating (0 to 100 scale); for pest or weed control at 125 g/ha: 125 g ai/ha, visual rating about 10 d after treatment; for pest or weed control at 31 g/ha: 31 g ai/ha, 0 is no effect, 100 is complete control
In short: as §1

rice (Oryra sativa) = assay: Test B flooded paddy test; details: Oryza sativa, 360 h, Flood, 250 g ai/ha; visually evaluated after 13 to 15 d; read-out: Plant response rating, Rice (0 to 100 scale where 0 is no effect and 100 is complete control)
In short: (§2)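 Rating scale 0–100 (visual, vs untreated controls) after a 13–15 d greenhouse period; application to the flood layer, 3 cm above soil and maintained; plants at 2-leaf stage when treated.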

[9] = system: sedge, umbrella (small-flower umbrella sedge, Cyperus difformis); assay: Test B flooded paddy test; details: Cyperus difformis, 360 h, Flood, 250 g ai/ha; visually evaluated after 13 to 15 d; read-out: Plant response rating, Sedge, Umbrella (0 to 100 scale where 0 is no effect and 100 is complete control)
In short: as §2

[10] = system: ducksalad (Heteranthera limosa); assay: Test B flooded paddy test; details: Heteranthera limosa, 360 h, Flood, 250 g ai/ha; visually evaluated after 13 to 15 d; read-out: Plant response rating, Ducksalad (0 to 100 scale where 0 is no effect and 100 is complete control)
In short: as §2

[11] = system: barnyardgrass (Echinochloa crus-galli); assay: Test B flooded paddy test; details: Echinochloa crus-galli, 360 h, Flood, 250 g ai/ha; visually evaluated after 13 to 15 d; read-out: Plant response rating, Barnyardgrass (0 to 100 scale where 0 is no effect and 100 is complete control)
In short: as §2

[12] = system: ryegrass, Italian (Italian ryegrass, Lolium multiflorum); assay: Test A preemergence; details: Lolium multiflorum, pre-emergence, 240 h, Preemergence; for pest or weed control at 31 g/ha: 31 g ai/ha, 0 to 100 scale where 0 is no effect and 100 is complete control, read-out: Ryegrass, Italian plant response rating; for pest or weed control at 125 g/ha: 125 g ai/ha, 0 to 100 scale (0 no effect, 100 complete control), read-out: Plant response rating, Ryegrass, Italian
In short: as §1

[13] = system: ragweed (common ragweed, Ambrosia elatior); assay: Test A preemergence; details: Ambrosia artemisiifolia, pre-emergence, 240 h, Preemergence; for pest or weed control at 31 g/ha: 31 g ai/ha, 0 to 100 scale where 0 is no effect and 100 is complete control, read-out: Ragweed plant response rating; for pest or weed control at 125 g/ha: 125 g ai/ha, 0 to 100 scale (0 no effect, 100 complete control), read-out: Plant response rating, Ragweed
In short: as §1

[14] = system: giant foxtail (Setaria faberii); assay: Test A preemergence; details: Setaria faberi, pre-emergence, 240 h, Preemergence
In short: as §1

Kochia (Kochia scoparia) [15] = assay: Test A preemergence; details: Bassia scoparia, pre-emergence, 240 h, Preemergence; for pest or weed control at 31 g/ha: 31 g ai/ha, 0 to 100 scale where 0 is no effect and 100 is complete control, read-out: Kochia plant response rating; for pest or weed control at 125 g/ha: 125 g ai/ha, 0 to 100 scale (0 no effect, 100 complete control), read-out: Plant response rating, Kochia
In short: as §1

[16] = system: barnyardgrass (Echinochloa crus-galli); assay: Test A preemergence; details: Echinochloa crus-galli, pre-emergence, 240 h, Preemergence; for pest or weed control at 31 g/ha: 31 g ai/ha, 0 to 100 scale where 0 is no effect and 100 is complete control, read-out: Barnyardgrass plant response rating; for pest or weed control at 125 g/ha: 125 g ai/ha, 0 to 100 scale (0 no effect, 100 complete control), read-out: Plant response rating, Barnyardgrass
In short: as §1

[17] = system: pigweed (Amaranthus retroflexus); assay: Test A preemergence; details: Amaranthus retroflexus, pre-emergence, 240 h, Preemergence; for pest or weed control at 31 g/ha: 31 g ai/ha, 0 to 100 scale where 0 is no effect and 100 is complete control, read-out: Pigweed plant response rating; for pest or weed control at 125 g/ha: 125 g ai/ha, 0 to 100 scale (0 no effect, 100 complete control), read-out: Plant response rating, Pigweed
[18] = system: Galium (catchweed bedstraw, Galium aparine); assay: Test A postemergence; details: Galium, post-emergence, 240 h, Postemergence, read-out: Galium plant response rating (0 to 100 scale); for pest or weed control at 125 g/ha: 125 g ai/ha, visual rating about 10 d after treatment; for pest or weed control at 31 g/ha: 31 g ai/ha, 0 is no effect, 100 is complete control
In short: as §1

Structure (SMILES) | plant injury at 125 g/ha [1] [%] | plant injury at 31 g/ha [1] [%] | pest or weed control at 125 g/ha [2] [%] | pest or weed control at 31 g/ha [2] [%] | pest or weed control at 125 g/ha [3] [%] | pest or weed control at 31 g/ha [3] [%] | pest or weed control at 125 g/ha [4] [%] | pest or weed control at 31 g/ha [4] [%] | pest or weed control at 125 g/ha [5] [%] | pest or weed control at 31 g/ha [5] [%] | pest or weed control at 125 g/ha (Kochia (Kochia scoparia) [6]) [%] | pest or weed control at 31 g/ha (Kochia (Kochia scoparia) [6]) [%] | pest or weed control at 125 g/ha [7] [%] | pest or weed control at 31 g/ha [7] [%] | plant injury at 125 g/ha (corn (Zea mays)) [%] | plant injury at 31 g/ha (corn (Zea mays)) [%] | pest or weed control at 125 g/ha [8] [%] | pest or weed control at 31 g/ha [8] [%] | pest or weed control at 31 g/ha [12] [%] | pest or weed control at 125 g/ha [12] [%] | also measured
COc1ccc([C@H]2CNC(=O)[C@@H]2C(=O)Nc2cccc(F)c2F)cc1 [Compound 1341] | 0 | 0 | 0 | 0 | 0 | 0 | 0 | 0 | 0 | 0 | 0 | 0 | 90 | 40 | 0 | 0 | 0 | 0 | 0 | 0 | pest or weed control at 250 g/ha (rice (Oryra sativa)): 0%; pest or weed control at 250 g/ha [9]: 0%; pest or weed control at 250 g/ha [10]: 90%; pest or weed control at 250 g/ha [11]: 30%; pest or weed control at 31 g/ha [13]: 20%; pest or weed control at 125 g/ha [13]: 0%; pest or weed control at 31 g/ha ([14]; 31 g ai/ha, 0 to 100 scale where 0 is no effect and 100 is complete control, read-out: Foxtail, Giant plant response rating): 10%; pest or weed control at 125 g/ha ([14]; 125 g ai/ha, 0 to 100 scale (0 no effect, 100 complete control), read-out: Plant response rating, Foxtail, Giant): 70%; pest or weed control at 31 g/ha (Kochia (Kochia scoparia) [15]): 30%; pest or weed control at 125 g/ha (Kochia (Kochia scoparia) [15]): 0%; pest or weed control at 31 g/ha [16]: 0%; pest or weed control at 125 g/ha [16]: 60%; pest or weed control at 31 g/ha [17]: 0%; pest or weed control at 125 g/ha [17]: 0%
CN1C[C@H](c2csc3c2CCC(F)(F)C3)[C@@H](C(=O)Nc2cccc(F)c2F)C1=O (racemic) [Compound 1369] | 0 | 0 | 30 | 0 | 20 | 0 | 20 | 0 | 50 | 20 | 20 | 0 | 60 | 20 | 0 | 0 | 20 | 20 | 0 | 0 | pest or weed control at 125 g/ha [18]: 30%; pest or weed control at 31 g/ha [18]: 0%; pest or weed control at 31 g/ha [13]: 50%; pest or weed control at 125 g/ha [13]: 70%; pest or weed control at 31 g/ha (Kochia (Kochia scoparia) [15]): 0%; pest or weed control at 125 g/ha (Kochia (Kochia scoparia) [15]): 0%; pest or weed control at 31 g/ha [16]: 0%; pest or weed control at 125 g/ha [16]: 100%; pest or weed control at 31 g/ha [17]: 0%; pest or weed control at 125 g/ha [17]: 0%
CN1C[C@H](c2csc3c2CCC(F)(F)C3)[C@@H](C(=O)Nc2ccc(F)c(F)c2F)C1=O (racemic) [Compound 1368] | 0 | 0 | 40 | 20 | 0 | 0 | 30 | 0 | 40 | 0 | 20 | 0 | 50 | 20 | 0 | 0 | 0 | 0 | 0 | 0 | pest or weed control at 125 g/ha [18]: 30%; pest or weed control at 31 g/ha [18]: 0%; pest or weed control at 31 g/ha [13]: 0%; pest or weed control at 125 g/ha [13]: 0%; pest or weed control at 31 g/ha (Kochia (Kochia scoparia) [15]): 0%; pest or weed control at 125 g/ha (Kochia (Kochia scoparia) [15]): 0%; pest or weed control at 31 g/ha [16]: 0%; pest or weed control at 125 g/ha [16]: 100%; pest or weed control at 31 g/ha [17]: 0%; pest or weed control at 125 g/ha [17]: 0%
